The results in this text go back to article PMC6001238, “Iterative Chemical Engineering of Vancomycin Leads to Novel Vancomycin Analogs With a High in Vitro Therapeutic Index” (Frontiers in Microbiology, 2018).

Converted amounts (≈) assume the structure as drawn.

The MIC is the lowest concentration that inhibits growth of the organism. What is called IC50 is the concentration at which inhibition is half-maximal.

The test system of one experiment is E. faecalis VRE 6. In words: MIC, broth microdilution, vancomycin-resistant E. faecalis VRE 6 (VanA). It is filed as cell-based, Enterococcus faecalis. Particulars: for MIC: Enterococcus faecalis VRE 6 (vancomycin-resistant), read-out: MIC; for MIC-fold improvement vs. vancomycin: VRE 6, ratio of MIC of vancomycin and MIC of analogue. The method, then: (§1) The minimum inhibitory concentration (MIC) was determined using the broth microdilution method according to the antimicrobial susceptibility testing standards of the clinical and laboratory standards institute ([Clinical and Laboratory Standards Institute [CLSI], 2012]). Ultrapure water and non-inoculated broth were used as controls. In one case, a final concentration of 10 μM vancomycin was included with the vancomycin analog or control antibiotic.
Background: Dilution methods test growth across graded concentrations, often in twofold steps.

Experiment [1] deals with Murine leukemia (L1210) cells. Nature of the experiment: Cytostatic activity, L1210 cell proliferation. It is filed as cell-based. Particulars: mean ± SD of three experiments; highest concentration tested 250 µM; 2 days; read-out: Toxicity (IC50) L1210. As for the experimental part:
(§2) Murine leukemia (L1210), human T-lymphocyte (CEM) and the human cervix carcinoma (HeLa) cell line were suspended at 300,000–500,000 cells/mL of culture medium, and 100 μL of a cell suspension was added to 100 μL of an appropriate dilution of the test compounds in wells of 96-well microtiter plates. After incubation at 37°C for 2 (L1210), 3 (CEM), or 4 (HeLa) days, the cell number was determined using a Coulter counter. The IC50 was defined per cell type as the compound concentration required to inhibit cell proliferation by 50% compared to the negative control ([Glowacka et al., 2017]).

The test system of another experiment is E. faecalis VRE 37. Nature of the experiment: MIC, broth microdilution, vancomycin-resistant E. faecalis VRE 37 (VanA). It is filed as cell-based, Enterococcus faecalis. To be noted: for MIC: Enterococcus faecalis VRE 37 (vancomycin-resistant), read-out: MIC; for MIC-fold improvement vs. vancomycin: VRE 37, ratio of MIC of vancomycin and MIC of analogue. The method, then: as §1

The next experiment has as its system E. faecalis VSE 1. Nature of the experiment: MIC, broth microdilution, vancomycin-sensitive E. faecalis (VSE 1). It is filed as cell-based, Enterococcus faecalis. Particulars: for MIC: Enterococcus faecalis VSE 1 (vancomycin-sensitive), read-out: MIC; for MIC-fold improvement vs. vancomycin: VSE 1, ratio of MIC of vancomycin and MIC of analogue. As for the experimental part:
as §1

Experiment [2] has as its system human T-lymphocyte (CEM) cells. Nature of the experiment: Cytostatic activity, CEM cell proliferation. It is filed as cell-based. To be noted: mean ± SD of three experiments; highest concentration tested 250 µM; 3 days; read-out: Toxicity (IC50) CEM. The method, then: as §2
Another experiment deals with E. faecalis VRE 53. In words: MIC, broth microdilution, vancomycin-resistant E. faecalis VRE 53 (VanA). To be noted: for MIC: Enterococcus faecalis VRE 53 (vancomycin-resistant), read-out: MIC; for MIC-fold improvement vs. vancomycin: VRE 53, ratio of MIC of vancomycin and MIC of analogue. It is filed as cell-based, Enterococcus faecalis. The method, then:
as §1

Experiment [3] has as its system L1210, CEM and HeLa cell lines. Nature of the experiment: Cytostatic activity, average or summary over L1210, CEM and HeLa. It is filed as cell-based. Particulars: average of L1210, CEM and HeLa; read-out: Toxicity (IC50) Average. As for the experimental part:
as §2

A further experiment deals with S. aureus VRSA. Nature of the experiment: MIC, broth microdilution, vancomycin-resistant S. aureus (VRSA). It is filed as cell-based, Staphylococcus aureus. To be noted: for MIC: Staphylococcus aureus VRSA, read-out: MIC; for MIC-fold improvement vs. vancomycin: VRSA, ratio of MIC of vancomycin and MIC of analogue. The method, then:
as §1

The subject of another experiment is E. faecalis VRE 29. Nature of the experiment: MIC, broth microdilution, vancomycin-resistant E. faecalis VRE 29 (VanA). It is filed as cell-based, Enterococcus faecalis. Particulars: for MIC: Enterococcus faecalis VRE 29 (vancomycin-resistant), read-out: MIC; for MIC-fold improvement vs. vancomycin: VRE 29, ratio of MIC of vancomycin and MIC of analogue. As for the experimental part: as §1

Another experiment relates to S. aureus VISA/HIP5827. Nature of the experiment: MIC, broth microdilution, vancomycin-intermediate S. aureus VISA HIP5827. Particulars: for MIC: Staphylococcus aureus VISA/HIP5827, read-out: MIC; for MIC-fold improvement vs. vancomycin: VISA/HIP5827, ratio of MIC of vancomycin and MIC of analogue. It is filed as cell-based, Staphylococcus aureus. The method, then:
as §1

For a further experiment, the system named is MRSA KS89. In words: MIC, broth microdilution, MRSA KS89. It is filed as cell-based, Staphylococcus aureus. Particulars: for MIC-fold improvement vs. vancomycin: MRSA KS8, ratio of MIC of vancomycin and MIC of analogue; for MIC: Staphylococcus aureus MRSA KS8, read-out: MIC. The method, then: as §1
Experiment [4] relates to human cervix carcinoma (HeLa) cells. Nature of the experiment: Cytostatic activity, HeLa cell proliferation. To be noted: mean ± SD of three experiments; highest concentration tested 250 µM; 4 days; read-out: Toxicity (IC50) HeLa. It is filed as cell-based. As for the experimental part:
as §2

Experiment [5] deals with S. aureus VSSA (ATCC 6538). Nature of the experiment: MIC, broth microdilution, vancomycin-sensitive S. aureus (VSSA/MSSA, ATCC 6538). To be noted: for MIC: Staphylococcus aureus VSSA, read-out: MIC; for MIC-fold improvement vs. vancomycin: VSSA, ratio of MIC of vancomycin and MIC of analogue. It is filed as cell-based, Staphylococcus aureus. The method, then: as §1

With `CNC(CC(C)C)C(=O)NC1C(=O)NC(CC(N)=O)C(=O)NC2C(=O)NC3C(=O)NC(C(=O)NC(C(=O)NCC(=O)Nc4ccc(-c5cnnn5C5OC(COC(C)=O)C(OC(C)=O)C(OC(C)=O)C5OC(C)=O)cc4)c4cc(O)cc(O)c4-c4cc3ccc4O)C(O)c3ccc(c(Cl)c3)Oc3cc2cc(c3OC2OC(CO)C(O)C(O)C2OC2CC(C)(N)C(O)C(C)O2)Oc2ccc(cc2Cl)C1O` (stereo not shown) [Vanc-78], the MIC is 3.13 µM (≈ 6.19 µg/mL) in the experiment on E. faecalis VRE 6; 50 µM (≈ 98.9 µg/mL) in the experiment with E. faecalis VRE 37; 0.78 µM (≈ 1.54 µg/mL) in the experiment with E. faecalis VSE 1; 50 µM (≈ 98.9 µg/mL) in the experiment on E. faecalis VRE 53; 3.13 µM (≈ 6.19 µg/mL) with S. aureus VRSA; 50 µM (≈ 98.9 µg/mL) with E. faecalis VRE 29. Besides, the figures for the MIC (with S. aureus VISA/HIP5827; in the experiment on MRSA KS89; in experiment [5]) were 3.13 µM (≈ 6.19 µg/mL), 0.78 µM (≈ 1.54 µg/mL) and 0.78 µM (≈ 1.54 µg/mL), respectively. The “MIC-fold improvement vs. vancomycin” value in the experiment on E. faecalis VRE 6 amounted to 64; with E. faecalis VRE 37 it was 8; with E. faecalis VSE 1, 2; in the experiment on E. faecalis VRE 53, 8; with S. aureus VRSA, 32; in the experiment with E. faecalis VRE 29 it was 8. Further, the figures for the “MIC-fold improvement vs. vancomycin” value (with S. aureus VISA/HIP5827; with MRSA KS89; in [5]) were 2, 1 and 1, respectively. Further, the IC50 in [1] was over 250 µM; in experiment [2] it was over 250 µM; in experiment [3], 186 µM; in experiment [4] it was 57 ± 32 µM.
As to `CCCCC[N+](C)(C)CCCNC(=O)c1ccc(NC(=O)CNC(=O)C2NC(=O)C3NC(=O)C(NC(=O)C4NC(=O)C(CC(N)=O)NC(=O)C(NC(=O)C(CC(C)C)NC)C(O)c5ccc(c(Cl)c5)Oc5cc4cc(c5OC4OC(CO)C(O)C(O)C4OC4CC(C)(N)C(O)C(C)O4)Oc4ccc(cc4Cl)C3O)c3ccc(O)c(c3)-c3c(O)cc(O)cc32)cc1` (stereo not shown) [Vanc-80], the MIC worked out at 6.25 µM in the experiment with E. faecalis VRE 6; 50 µM with E. faecalis VRE 37; 1.56 µM in the experiment with E. faecalis VSE 1; 50 µM with E. faecalis VRE 53; 1.56 µM in the experiment with S. aureus VRSA; 50 µM in the experiment with E. faecalis VRE 29. Further, the MIC is listed as 6.25 µM in the experiment with S. aureus VISA/HIP5827, 0.78 µM with MRSA KS89 and 0.78 µM in [5]. The “MIC-fold improvement vs. vancomycin” value is 32 with E. faecalis VRE 6; 8 in the experiment on E. faecalis VRE 37; 1 in the experiment with E. faecalis VSE 1; 8 with E. faecalis VRE 53; 64 in the experiment on S. aureus VRSA; 8 with E. faecalis VRE 29. Besides, the “MIC-fold improvement vs. vancomycin” value (with S. aureus VISA/HIP5827; with MRSA KS89; in experiment [5]) was 1 each time. In addition, the IC50 is 230 ± 3 µM in experiment [1], over 250 µM in experiment [2], 239 µM in experiment [3] and 238 µM in experiment [4].
Consider `CCCC#Cc1ccc(NC(=O)CNC(=O)C2NC(=O)C3NC(=O)C(NC(=O)C4NC(=O)C(CC(N)=O)NC(=O)C(NC(=O)C(CC(C)C)NC)C(O)c5ccc(c(Cl)c5)Oc5cc4cc(c5OC4OC(CO)C(O)C(O)C4OC4CC(C)(N)C(O)C(C)O4)Oc4ccc(cc4Cl)C3O)c3ccc(O)c(c3)-c3c(O)cc(O)cc32)cc1` (stereo not shown) [Vanc-68], for which the MIC with E. faecalis VRE 6 is listed as 3.13 µM (≈ 5.16 µg/mL); in the experiment on E. faecalis VRE 37, 3.13 µM (≈ 5.16 µg/mL); with E. faecalis VSE 1, 0.78 µM (≈ 1.29 µg/mL); in the experiment with E. faecalis VRE 53, 3.13 µM (≈ 5.16 µg/mL); with S. aureus VRSA it was 1.56 µM (≈ 2.57 µg/mL); in the experiment with E. faecalis VRE 29, 3.13 µM (≈ 5.16 µg/mL). The MIC in the experiment with S. aureus VISA/HIP5827 came out at 0.39 µM (≈ 0.643 µg/mL); in experiment [5] it was 0.78 µM (≈ 1.29 µg/mL). Also, the “MIC-fold improvement vs. vancomycin” value in the experiment with E. faecalis VRE 6 is on record as 64; in the experiment with E. faecalis VRE 37, 128; in the experiment with E. faecalis VSE 1, 2; in the experiment on E. faecalis VRE 53, 128; in the experiment with S. aureus VRSA, 64; in the experiment with E. faecalis VRE 29, 128. The “MIC-fold improvement vs. vancomycin” value in the experiment on S. aureus VISA/HIP5827 is 16; in [5] it was 1. For the same compound, the IC50 came to 42 ± 14 µM in experiment [1], 19 ± 1 µM in experiment [2], 39 µM in experiment [3] and 55 ± 20 µM in experiment [4].
